Experimental data published in ChEMBL document CHEMBL1127106, “Synthesis and cytotoxic activity of () octadecylphosphodithionyl-1-myo-inositol” (1993).
Where “and” joins values, the source holds several entries; their conditions need not be identical. Identical values can stand only once.

How the values were obtained:
Type in all cases: functional, Homo sapiens
K562 [1] = experiment: Cytotoxic activity on K-562 erythroleukemia cell line suspension in 5% foetal calf serum (FCS) at 4*10e-5 M concentration after 2 hr
K562 [2] = experiment: Cytotoxic activity on K-562 erythroleukemia cell line suspension in 5% foetal calf serum (FCS) at 10e-4 M concentration after 1 hr
K562 [3] = experiment: Cytotoxic activity on K-562 erythroleukemia cell line suspension in 5% foetal calf serum (FCS) at 10e-3 M concentration after 2 hr
K562 [4] = experiment: Cytotoxic activity on K-562 erythroleukemia cell line suspension in 5% foetal calf serum (FCS) at 4*10e-6 M concentration after 2 hr
K562 [5] = experiment: Cytotoxic activity on K-562 erythroleukemia cell line suspension in 5% foetal calf serum (FCS) at 10e-5 M concentration after 2 hr
K562 [6] = experiment: Cytotoxic activity on K-562 erythroleukemia cell line suspension in 5% foetal calf serum (FCS) at 4*10e-5 M concentration after 24 hr
K562 [7] = experiment: Cytotoxic activity on K-562 erythroleukemia cell line suspension in 5% foetal calf serum (FCS) at 10e-6 M concentration after 24 hr
K562 [8] = experiment: Cytotoxic activity on K-562 erythroleukemia cell line suspension in 5% foetal calf serum (FCS) at 10e-5 M concentration after 24 hr
K562 [9] = experiment: Cytotoxic activity on K-562 erythroleukemia cell line suspension in 5% foetal calf serum (FCS) at 10e-5 M concentration after 1 hr
K562 [10] = experiment: Cytotoxic activity on K-562 erythroleukemia cell line suspension in 5% foetal calf serum (FCS) at 4*10e-4 M concentration after 1 hr
K562 [11] = experiment: Cytotoxic activity on K-562 erythroleukemia cell line suspension in 5% foetal calf serum (FCS) at 10e-3 M concentration after 1 hr
K562 [12] = experiment: Cytotoxic activity on K-562 erythroleukemia cell line suspension in 5% foetal calf serum (FCS) at 4*10e-5 M concentration after 1 hr
K562 [13] = experiment: Cytotoxic activity on K-562 erythroleukemia cell line suspension in 5% foetal calf serum (FCS) at 10e-3 M concentration after 24 hr
K562 [14] = experiment: Cytotoxic activity on K-562 erythroleukemia cell line suspension in 5% foetal calf serum (FCS) at 10e-4 M concentration after 24 hr
K562 [15] = experiment: Cytotoxic activity on K-562 erythroleukemia cell line suspension in 5% foetal calf serum (FCS) at 4*10e-6 M concentration after 24 hr
K562 [16] = experiment: Cytotoxic activity on K-562 erythroleukemia cell line suspension in 5% foetal calf serum (FCS) at 10e-6 M concentration after 2 hr
K562 [17] = experiment: Cytotoxic activity on K-562 erythroleukemia cell line suspension in 5% foetal calf serum (FCS) at 10e-6 M concentration after 1 hr
K562 [18] = experiment: Cytotoxic activity on K-562 erythroleukemia cell line suspension in 5% foetal calf serum (FCS) at 4*10e-6 M concentration after 1 hr
K562 [19] = experiment: Cytotoxic activity on K-562 erythroleukemia cell line suspension in 5% foetal calf serum (FCS) at 4*10e-4 M concentration after 24 hr
K562 [20] = experiment: Cytotoxic activity on K-562 erythroleukemia cell line suspension in 5% foetal calf serum (FCS) at 10e-4 M concentration after 2 hr

In the case of CCCCCCCCCCCCCCCCCCSP(O)(=S)O[C@@H]1[C@@H](O)[C@H](O)[C@@H](O)[C@H](O)[C@@H]1O (stereo not given in full), the Dead cells (K562 [1]) is reported as 17%, the Dead cells (K562 [2]) is reported as 18.4% and the Dead cells (K562 [3]) is reported as 52.52%. The Dead cells (K562 [4]) was 16.8% and 45.9%, the Dead cells (K562 [5]) was 16.6% and the Dead cells (K562 [6]) was 24.4%. It also gave a Dead cells (K562 [7]) of 27.2%, a Dead cells (K562 [8]) of 23.3% and a Dead cells (K562 [9]) of 13.3%. The Dead cells (K562 [10]) was 48.2%, the Dead cells (K562 [11]) was 48.9% and the Dead cells (K562 [12]) was 15.5%. The Dead cells (K562 [13]) was 96.2%, the Dead cells (K562 [14]) was 40% and the Dead cells (K562 [15]) was 22.5%. The Dead cells (K562 [16]) was 18.2%, the Dead cells (K562 [17]) was 14% and the Dead cells (K562 [18]) was 13.3%. It also gave a Dead cells (K562 [19]) of 71.1% and a Dead cells (K562 [20]) of 22.7%.
